# According to publication PMC5218480 (PLoS ONE, 2017):
# System: MV-4-11 cells
# Experiment: Gene expression microarray analysis (Affymetrix PrimeView) and GSEA
# Type: cell-based, human
# Parameters: RFU PODN (11730768_x_at) / Fold change /veh PODN (11730768_x_at) / RFU LINC00158 (11744669_a_at) / Fold change /veh LINC00158 (11744669_a_at) / RFU DUSP10 (11751237_a_at) / Fold change /veh DUSP10 (11751237_a_at) / RFU ID3 (11757404_x_at) / Fold change /veh ID3 (11757404_x_at) / RFU PLEKHG5 (11737974_s_at) / Fold change /veh PLEKHG5 (11737974_s_at) / RFU LRRC4B (11730491_at) / Fold change /veh LRRC4B (11730491_at) / RFU GIMAP4 (11747438_a_at) / Fold change /veh GIMAP4 (11747438_a_at) / RFU KRT8 (11758183_x_at) / Fold change /veh KRT8 (11758183_x_at) / RFU CNN1 (11734310_a_at) / Fold change /veh CNN1 (11734310_a_at) / RFU VPS37D (11726825_at) / Fold change /veh VPS37D (11726825_at) / RFU C10orf10 (11716522_x_at) / Fold change /veh C10orf10 (11716522_x_at) / RFU KIR2DL2 /// KIR2DL4 /// KIR2DL5A /// KIR2DL5B /// KIR2DS1 /// KIR2DS2 /// KIR2DS3 /// KIR2DS4 /// KIR3DL3 /// KIR3DL3 /// KIR3DS1 (11738374_at) / Fold change /veh KIR2DL2 /// KIR2DL4 /// KIR2DL5A /// KIR2DL5B /// KIR2DS1 /// KIR2DS2 /// KIR2DS3 /// KIR2DS4 /// KIR3DL3 /// KIR3DL3 /// KIR3DS1 (11738374_at) / RFU C1QL1 (11718748_at) / Fold change /veh C1QL1 (11718748_at) / RFU TMPRSS4 (11747572_a_at) / Fold change /veh TMPRSS4 (11747572_a_at) / RFU HAMP (11756126_x_at) / Fold change /veh HAMP (11756126_x_at) / RFU RNFT2 (11725882_a_at) / Fold change /veh RNFT2 (11725882_a_at) / RFU NR4A2 (11747474_a_at) / Fold change /veh NR4A2 (11747474_a_at) / RFU ABCC12 (11746883_a_at) / Fold change /veh ABCC12 (11746883_a_at) / RFU TMEM136 (11760407_x_at) / Fold change /veh TMEM136 (11760407_x_at) / RFU CLDN22 /// WWC2 (11732394_at) / Fold change /veh CLDN22 /// WWC2 (11732394_at) / RFU HLA-DPB1 (11760878_x_at) / Fold change /veh HLA-DPB1 (11760878_x_at) / RFU SPINT1 (11716480_a_at) / Fold change /veh SPINT1 (11716480_a_at) / RFU GAP43 (11754022_s_at) / Fold change /veh GAP43 (11754022_s_at) / RFU A4GNT (11735810_at) / Fold change /veh A4GNT (11735810_at) / RFU PRB3 (11715151_x_at) / Fold change /veh PRB3 (11715151_x_at) / RFU TUBB4B (11761932_at) / Fold change /veh TUBB4B (11761932_at) / RFU CAPN14 (11732068_a_at) / Fold change /veh CAPN14 (11732068_a_at) / RFU TMCC2 (11721928_a_at) / Fold change /veh TMCC2 (11721928_a_at) / RFU IRGQ (11745062_a_at) / Fold change /veh IRGQ (11745062_a_at) / RFU FAM174B (11720279_a_at) / Fold change /veh FAM174B (11720279_a_at) / RFU TMPRSS4 (11748680_a_at) / Fold change /veh TMPRSS4 (11748680_a_at) / RFU FAM212B (11763350_a_at) / Fold change /veh FAM212B (11763350_a_at) / RFU PLEKHG5 (11743358_a_at) / Fold change /veh PLEKHG5 (11743358_a_at) / RFU ZSCAN30 (11745921_a_at) / Fold change /veh ZSCAN30 (11745921_a_at) / RFU CMKLR1 (11741424_a_at) / Fold change /veh CMKLR1 (11741424_a_at) / RFU LOC101060620 /// MAPK8IP1 (11723275_at) / Fold change /veh LOC101060620 /// MAPK8IP1 (11723275_at) / RFU SPTSSB (11747773_x_at) / Fold change /veh SPTSSB (11747773_x_at) / RFU PRSS12 (11739890_at) / Fold change /veh PRSS12 (11739890_at) / RFU BIN1 (11741810_x_at) / Fold change /veh BIN1 (11741810_x_at) / RFU WNT11 (11732464_a_at) / Fold change /veh WNT11 (11732464_a_at) / RFU C10orf10 (11716521_a_at) / Fold change /veh C10orf10 (11716521_a_at) / RFU C5orf56 (11738089_at) / Fold change /veh C5orf56 (11738089_at) / RFU CYB561 (11721691_x_at) / Fold change /veh CYB561 (11721691_x_at) / RFU ANKRD19P (11752326_a_at) / Fold change /veh ANKRD19P (11752326_a_at) / RFU OR2T12 /// OR2T33 /// OR2T8 (11738714_s_at) / Fold change /veh OR2T12 /// OR2T33 /// OR2T8 (11738714_s_at) / RFU VCAN (11748164_a_at) / Fold change /veh VCAN (11748164_a_at) / RFU JSRP1 (11732532_at) / Fold change /veh JSRP1 (11732532_at) / RFU KRTAP10-11 (11738290_x_at) / Fold change /veh KRTAP10-11 (11738290_x_at) / RFU MYO3A (11730013_a_at) / Fold change /veh MYO3A (11730013_a_at) / RFU EBF3 (11725865_a_at) / Fold change /veh EBF3 (11725865_a_at) / RFU CAMK2N1 (11719241_x_at) / Fold change /veh CAMK2N1 (11719241_x_at) / RFU C5orf56 (11738088_a_at) / Fold change /veh C5orf56 (11738088_a_at) / RFU OLFML3 (11715873_a_at) / Fold change /veh OLFML3 (11715873_a_at) / RFU LOC100653217 /// NTM (11731650_a_at) / Fold change /veh LOC100653217 /// NTM (11731650_a_at) / RFU MAPK11 (11762145_a_at) / Fold change /veh MAPK11 (11762145_a_at) / RFU FIZ1 (11724087_x_at) / Fold change /veh FIZ1 (11724087_x_at) / RFU OASL (11726364_x_at) / Fold change /veh OASL (11726364_x_at) / RFU SOX15 (11748057_x_at) / Fold change /veh SOX15 (11748057_x_at) / RFU CD79A (11719716_a_at) / Fold change /veh CD79A (11719716_a_at) / RFU HIST1H1D (11736915_at) / Fold change /veh HIST1H1D (11736915_at) / RFU CASKIN2 (11723855_a_at) / Fold change /veh CASKIN2 (11723855_a_at) / RFU LOC730098 (11760151_x_at) / Fold change /veh LOC730098 (11760151_x_at) / RFU OR4N2 (11742367_at) / Fold change /veh OR4N2 (11742367_at) / RFU PRRT2 (11749266_a_at) / Fold change /veh PRRT2 (11749266_a_at) / RFU SNX32 (11753110_a_at) / Fold change /veh SNX32 (11753110_a_at) / RFU CDHR5 (11726645_a_at) / Fold change /veh CDHR5 (11726645_a_at) / RFU RCAN1 (11760418_a_at) / Fold change /veh RCAN1 (11760418_a_at) / RFU FAM167A (11723789_a_at) / Fold change /veh FAM167A (11723789_a_at) / RFU FAM26E (11764081_at) / Fold change /veh FAM26E (11764081_at) / RFU ISYNA1 (11749810_s_at) / Fold change /veh ISYNA1 (11749810_s_at) / RFU ACY1 (11761880_at) / Fold change /veh ACY1 (11761880_at) / RFU 11764098_at / Fold change /veh 11764098_at / RFU SAMD14 (11745864_x_at) / Fold change /veh SAMD14 (11745864_x_at) / RFU NPB (11741838_a_at) / Fold change /veh NPB (11741838_a_at) / RFU TMPRSS6 (11731388_a_at) / Fold change /veh TMPRSS6 (11731388_a_at) / RFU KRTAP10-2 (11738614_at) / Fold change /veh KRTAP10-2 (11738614_at) / RFU ARHGAP8 /// PRR5-ARHGAP8 (11727945_x_at) / Fold change /veh ARHGAP8 /// PRR5-ARHGAP8 (11727945_x_at) / RFU KRTAP5-7 /// NADSYN1 (11734609_at) / Fold change /veh KRTAP5-7 /// NADSYN1 (11734609_at) / RFU RASL12 (11751679_a_at) / Fold change /veh RASL12 (11751679_a_at) / RFU CDKN2B (11736163_a_at) / Fold change /veh CDKN2B (11736163_a_at) / RFU PRF1 (11729649_at) / Fold change /veh PRF1 (11729649_at) / RFU, ZNF638 /// ZNF638-IT1 / Fold change vs veh, ZNF638 /// ZNF638-IT1 / RFU, PANK3 / Fold change vs veh, PANK3 / RFU, SH3YL1 / Fold change vs veh, SH3YL1 / RFU, ZEB2 / Fold change vs veh, ZEB2 / RFU, NRIP1 / Fold change vs veh, NRIP1 / RFU, PTTG1IP / Fold change vs veh, PTTG1IP / RFU, CAPN2 / Fold change vs veh, CAPN2 / RFU, MED14 / Fold change vs veh, MED14 / RFU, SNORA58 / Fold change vs veh, SNORA58 / RFU, C1orf63 / Fold change vs veh, C1orf63 / RFU, LRRFIP1 / Fold change vs veh, LRRFIP1 / RFU, NDUFAF7 / Fold change vs veh, NDUFAF7 / RFU, SLC12A2 / Fold change vs veh, SLC12A2 / RFU, IBTK / Fold change vs veh, IBTK / RFU, ESF1 / Fold change vs veh, ESF1 / Fold change vs veh, TMEM50B / RFU, TAOK1 / Fold change vs veh, TAOK1 / RFU, ACBD3 / Fold change vs veh, ACBD3 / RFU, TMA16 / Fold change vs veh, TMA16 / RFU, RWDD3 / Fold change vs veh, RWDD3 / RFU, BCAT1 / Fold change vs veh, BCAT1 / RFU, EDEM3 / Fold change vs veh, EDEM3 / RFU, TMEM33 / Fold change vs veh, TMEM33 / RFU, WDR75 / Fold change vs veh, WDR75 / RFU, AHCTF1 / Fold change vs veh, AHCTF1 / RFU, TFRC / Fold change vs veh, TFRC / RFU, ZDHHC17 / Fold change vs veh, ZDHHC17 / RFU, NOM1 / Fold change vs veh, NOM1 / RFU, ARL8B / Fold change vs veh, ARL8B / RFU, ZBTB11 / Fold change vs veh, ZBTB11 / RFU, TAMM41 / Fold change vs veh, TAMM41 / RFU, KIAA1704 /// LOC100996395 / Fold change vs veh, KIAA1704 /// LOC100996395 / RFU, ING1 / Fold change vs veh, ING1 / RFU, TRMT61B / Fold change vs veh, TRMT61B / RFU, FUBP3 / Fold change vs veh, FUBP3 / RFU, TP53 / Fold change vs veh, TP53 / RFU, TNKS2 / Fold change vs veh, TNKS2 / RFU, ZFP14 / Fold change vs veh, ZFP14 / RFU, ACTR2 / Fold change vs veh, ACTR2 / RFU, PPP3R1 / Fold change vs veh, PPP3R1 / RFU, PIK3R1 / Fold change vs veh, PIK3R1 / RFU, HNRNPA1 / Fold change vs veh, HNRNPA1 / RFU, RNF170 / Fold change vs veh, RNF170 / RFU, ZNF28 / Fold change vs veh, ZNF28 / RFU, RNGTT / Fold change vs veh, RNGTT / RFU, OGT / Fold change vs veh, OGT / RFU, BRD1 / Fold change vs veh, BRD1 / RFU, MARS / Fold change vs veh, MARS / RFU, ZNF655 / Fold change vs veh, ZNF655 / RFU, FAHD1 / Fold change vs veh, FAHD1 / RFU, BDP1 / Fold change vs veh, BDP1 / RFU, LRRCC1 / Fold change vs veh, LRRCC1 / RFU, ARID1A / Fold change vs veh, ARID1A / RFU, ZNF146 / Fold change vs veh, ZNF146 / RFU, ZNF330 / Fold change vs veh, ZNF330 / RFU, GPN3 / Fold change vs veh, GPN3 / RFU, C9orf123 / Fold change vs veh, C9orf123 / RFU, N4BP2L2 / Fold change vs veh, N4BP2L2 / RFU, ARFIP1 / Fold change vs veh, ARFIP1 / RFU, FAM179B / Fold change vs veh, FAM179B / RFU, BCL10 / Fold change vs veh, BCL10 / RFU, UHRF1BP1L / Fold change vs veh, UHRF1BP1L / RFU, BET1 / Fold change vs veh, BET1 / RFU, CNOT2 / Fold change vs veh, CNOT2 / RFU, ZNF268 / Fold change vs veh, ZNF268 / Fold change vs veh, ZNF507 / RFU, DGCR2 / Fold change vs veh, DGCR2 / RFU, WDSUB1 / Fold change vs veh, WDSUB1 / Fold change vs veh, HSP90B1 /// MIR3652 / RFU, ADSS / Fold change vs veh, ADSS / RFU, GK / Fold change vs veh, GK / RFU, ZNF148 / Fold change vs veh, ZNF148 / RFU, TAF9 / Fold change vs veh, TAF9 / RFU, SLC1A5 / Fold change vs veh, SLC1A5 / RFU, SLMO2 / Fold change vs veh, SLMO2 / RFU, ABCC4 / Fold change vs veh, ABCC4 / RFU, LOC101060439 /// RAP1B / Fold change vs veh, LOC101060439 /// RAP1B / RFU, RFX7 / Fold change vs veh, RFX7 / RFU, GTPBP10 / Fold change vs veh, GTPBP10 / RFU, CNEP1R1 / Fold change vs veh, CNEP1R1 / RFU, BIVM-ERCC5 /// ERCC5 / Fold change vs veh, BIVM-ERCC5 /// ERCC5 / RFU, ILF3 / Fold change vs veh, ILF3 / RFU 11762660_at / Fold change /veh 11762660_at / RFU VCAN (11757783_s_at) / Fold change /veh VCAN (11757783_s_at) / RFU DDX43 (11728927_at) / Fold change /veh DDX43 (11728927_at) / RFU KRT8 (11758188_x_at) / Fold change /veh KRT8 (11758188_x_at) / RFU NKD1 (11759106_at) / Fold change /veh NKD1 (11759106_at) / RFU SRD5A1 (11742802_a_at) / Fold change /veh SRD5A1 (11742802_a_at) / RFU TPSAB1 /// TPSB2 (11721975_s_at) / Fold change /veh TPSAB1 /// TPSB2 (11721975_s_at) / RFU GSTM3 (11746129_a_at) / Fold change /veh GSTM3 (11746129_a_at) / RFU IL23R (11737362_x_at) / Fold change /veh IL23R (11737362_x_at) / RFU TMEM51 (11727254_a_at) / Fold change /veh TMEM51 (11727254_a_at) / RFU PIWIL2 (11732686_x_at) / Fold change /veh PIWIL2 (11732686_x_at) / RFU ORM1 (11744905_x_at) / Fold change /veh ORM1 (11744905_x_at) / RFU CCDC152 (11743942_at) / Fold change /veh CCDC152 (11743942_at) / RFU ECM1 (11717891_a_at) / Fold change /veh ECM1 (11717891_a_at) / RFU IL23R (11748794_a_at) / Fold change /veh IL23R (11748794_a_at) / RFU TNFAIP8L3 (11732012_x_at) / Fold change /veh TNFAIP8L3 (11732012_x_at) / RFU MBOAT4 (11741988_at) / Fold change /veh MBOAT4 (11741988_at) / RFU 11764193_at / Fold change /veh 11764193_at / RFU TMEM53 (11763286_at) / Fold change /veh TMEM53 (11763286_at) / RFU MAGEB2 (11727129_at) / Fold change /veh MAGEB2 (11727129_at) / RFU TMEM200A (11744735_a_at) / Fold change /veh TMEM200A (11744735_a_at) / RFU CCDC152 (11751479_a_at) / Fold change /veh CCDC152 (11751479_a_at) / RFU FAM211A (11726209_a_at) / Fold change /veh FAM211A (11726209_a_at) / RFU RGS16 (11746705_a_at) / Fold change /veh RGS16 (11746705_a_at) / RFU VCAN (11755009_s_at) / Fold change /veh VCAN (11755009_s_at) / RFU RHOB (11743442_s_at) / Fold change /veh RHOB (11743442_s_at) / RFU RGS16 (11720943_a_at) / Fold change /veh RGS16 (11720943_a_at) / RFU RGS16 (11720944_at) / Fold change /veh RGS16 (11720944_at) / RFU, VPS4B / Fold change vs veh, VPS4B / RFU, CREB1 / Fold change vs veh, CREB1 / RFU, DNAJC13 / Fold change vs veh, DNAJC13 / RFU, GNAQ / Fold change vs veh, GNAQ / RFU, CDK5R1 / Fold change vs veh, CDK5R1 / RFU, ZRANB3 / Fold change vs veh, ZRANB3 / RFU, CUL4A / Fold change vs veh, CUL4A / RFU, CCNY / Fold change vs veh, CCNY / RFU, UFL1 / Fold change vs veh, UFL1 / RFU, COG3 / Fold change vs veh, COG3 / RFU, DIAPH2 / Fold change vs veh, DIAPH2 / RFU, SKA2 / Fold change vs veh, SKA2 / RFU, AFF3 / Fold change vs veh, AFF3 / RFU, LMF1 / Fold change vs veh, LMF1 / RFU, IPO11 / Fold change vs veh, IPO11 / RFU, DFFB / Fold change vs veh, DFFB / RFU, FOXP1 / Fold change vs veh, FOXP1 / RFU, CARD8 / Fold change vs veh, CARD8 / RFU, STRN3 / Fold change vs veh, STRN3 / RFU, ADK / Fold change vs veh, ADK / RFU, RASSF2 / Fold change vs veh, RASSF2 / RFU, WIPF1 / Fold change vs veh, WIPF1 / RFU, LARP1B / Fold change vs veh, LARP1B / RFU, RASA1 / Fold change vs veh, RASA1 / RFU, RB1 / Fold change vs veh, RB1 / RFU, PPFIA1 / Fold change vs veh, PPFIA1 / RFU, MAT2A / Fold change vs veh, MAT2A / RFU, CCT5 / Fold change vs veh, CCT5 / RFU, WDR92 / Fold change vs veh, WDR92 / RFU, CUX1 / Fold change vs veh, CUX1 / RFU, TTC7A / Fold change vs veh, TTC7A / RFU, TMEM135 / Fold change vs veh, TMEM135 / RFU, DEPTOR / Fold change vs veh, DEPTOR / RFU, CPM / Fold change vs veh, CPM / RFU, DNAJB6 / Fold change vs veh, DNAJB6 / RFU, CACNA2D3 / Fold change vs veh, CACNA2D3 / RFU, DTX4 / Fold change vs veh, DTX4 / RFU, TFCP2 / Fold change vs veh, TFCP2 / RFU, GMCL1 /// GMCL1P1 / Fold change vs veh, GMCL1 /// GMCL1P1 / RFU, AEBP2 / Fold change vs veh, AEBP2 / RFU, SNHG1 /// SNORD22 /// SNORD25 /// SNORD26 /// SNORD27 /// SNORD28 /// SNORD29 /// SNORD31 / Fold change vs veh, SNHG1 /// SNORD22 /// SNORD25 /// SNORD26 /// SNORD27 /// SNORD28 /// SNORD29 /// SNORD31 / Fold change (Aza/veh), C12orf56 (ProbeSet 11735607_a_at) / Fold change (ACY-1035/veh), C12orf56 (ProbeSet 11735607_a_at) / Fold change (Aza/veh), FGFR1OP (ProbeSet 11751329_s_at) / Fold change (ACY-1035/veh), FGFR1OP (ProbeSet 11751329_s_at) / Fold change (Aza/veh), VPS36 (ProbeSet 11739960_a_at) / Fold change (ACY-1035/veh), VPS36 (ProbeSet 11739960_a_at) / RFU SYPL1 (11715823_x_at) / Fold change /veh SYPL1 (11715823_x_at) / RFU IGFBP7 (11715501_s_at) / Fold change /veh IGFBP7 (11715501_s_at) / RFU REEP3 (11722064_at) / Fold change /veh REEP3 (11722064_at) / RFU IGLL1 (11728026_x_at) / Fold change /veh IGLL1 (11728026_x_at): dose or concentration left out as unconfirmed
# Conditions: MV-4-11 cells, 48 hours
smiles,measurement,value
Nc1ncn([C@@H]2O[C@H](CO)[C@@H](O)[C@H]2O)c(=O)n1 [azacitidine],RFU CAPN14 (11732068_a_at),10.94 RFU
